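48-hour exposure; five concentrations; linearly interpolated endpoints. GI50 is the concentration that inhibits growth by half.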 Activity calls are given as the source filed them. No stated cut-off is given here; in the data, active = GI50 up to about 1.1 µM and inactive = higher.
How the values were obtained:
Assay in all cases: NCI tumour cell line growth inhibition, 48 h
DLD-1 = tested on: DLD-1
DMS-114 = tested on: DMS-114
HOP-18 = tested on: HOP-18
KM-20L2 = tested on: KM-20L2
LXFL 529 = tested on: LXFL 529
M19-MEL = tested on: M19-MEL
RXF 631 = tested on: RXF 631
SNB-78 = tested on: SNB-78
XF498 = tested on: XF498

Measured: GI50

C/C=C/C=C/[C@H]1Cc2cc(O)cc(O)c2O1
inactive: DLD-1 82 µM | DMS-114 22.6 µM | HOP-18 > 100 µM | KM-20L2 62.4 µM | LXFL 529 27.4 µM | M19-MEL 39.6 µM | RXF 631 62.4 µM | SNB-78 > 100 µM | XF498 46.5 µM

CN(N=O)C(=O)N[C@H]1C(O)O[C@H](CO)[C@@H](O)[C@@H]1O (stereo partly specified)
inactive: DLD-1 632 µM | DMS-114 504 µM | HOP-18 222 µM | KM-20L2 > 750 µM | LXFL 529 > 750 µM | M19-MEL 475 µM | SNB-78 545 µM | XF498 557 µM

C=CCC(OCCOCC)c1cc(OCCOCC)ccc1OC (stereo unspecified)
inactive: LXFL 529 > 100 µM | M19-MEL > 100 µM | SNB-78 > 100 µM | XF498 > 100 µM

O=C1N=C(Nc2ccccc2Cl)SC1C(=O)Nc1ccc([N+](=O)[O-])cc1[N+](=O)[O-] (stereo unspecified)
inactive: DLD-1 > 100 µM | DMS-114 75.3 µM | HOP-18 22 µM | KM-20L2 > 100 µM | LXFL 529 > 100 µM | M19-MEL > 100 µM | RXF 631 > 100 µM | SNB-78 > 100 µM | XF498 > 100 µM

CCOc1ccc(NCC2CC/C(=C\c3ccccc3OC)C2=O)cc1 (stereo unspecified)
inactive: DLD-1 3.09 µM | DMS-114 9.71 µM | HOP-18 15.3 µM | KM-20L2 14 µM | LXFL 529 2.56 µM | M19-MEL 8.95 µM | RXF 631 23.8 µM | SNB-78 16.5 µM

COc1ccc(/N=N/c2c(N)nn(C)c2N)cc1
inactive: DLD-1 > 100 µM | DMS-114 > 100 µM | HOP-18 92.3 µM | KM-20L2 > 100 µM | LXFL 529 > 100 µM | M19-MEL > 100 µM | RXF 631 > 100 µM | SNB-78 > 100 µM

O=C(/C=C/c1ccccc1)c1ccc(NCc2nc3ccccc3[nH]2)cc1
inactive: DLD-1 4.27 µM | DMS-114 2.56 µM | HOP-18 2.34 µM | KM-20L2 2.9 µM | LXFL 529 2.83 µM | M19-MEL 4.41 µM | SNB-78 4.9 µM | XF498 7.6 µM

O=C1[C@H]2ON(c3ccccc3)C(c3ccc(Cl)cc3)[C@H]2C(=O)N1c1ccc(Cc2ccc(N3C(=O)[C@@H]4ON(c5ccccc5)C(c5ccc(Cl)cc5)[C@@H]4C3=O)cc2)cc1 (stereo partly specified)
inactive: DLD-1 > 100 µM | DMS-114 > 100 µM | HOP-18 > 100 µM | KM-20L2 > 100 µM | LXFL 529 94.8 µM | M19-MEL > 100 µM | RXF 631 > 100 µM | SNB-78 > 100 µM

O=C(O)c1ccccc1[Se][Se]c1ccccc1C(=O)O
inactive: DLD-1 > 100 µM | DMS-114 32.3 µM | HOP-18 23.2 µM | KM-20L2 25.8 µM | M19-MEL 41.4 µM | RXF 631 28.4 µM | XF498 70 µM

O=c1[nH]c(=O)n(C2CC(O)C(CO)O2)cc1C#Cc1cc(F)cc(F)c1 (stereo unspecified)
inactive: DLD-1 > 100 µM | DMS-114 > 100 µM | HOP-18 24.7 µM | KM-20L2 > 10 µM | LXFL 529 > 100 µM | M19-MEL > 100 µM | RXF 631 > 100 µM | SNB-78 > 100 µM | XF498 > 100 µM

CC(=O)NCc1c(C(N)=O)ncn1Cc1ccccc1
inactive: DMS-114 > 100 µM | HOP-18 > 100 µM | KM-20L2 > 100 µM | LXFL 529 > 100 µM | M19-MEL > 100 µM | RXF 631 > 100 µM | SNB-78 > 100 µM | XF498 > 100 µM

COc1ccc2cc1Oc1ccc(cc1)CC1c3cc4c(cc3CCN1C)Oc1c(OC)cc3c(c1O4)C(C2)N(C)CC3 (stereo unspecified)
inactive: DLD-1 2.96 µM | KM-20L2 2.55 µM | LXFL 529 2 µM | M19-MEL 4.01 µM | RXF 631 4.99 µM | SNB-78 17.6 µM | XF498 1.94 µM

O=C(OCc1nc2ccc(Br)cc2c(=O)n1-c1ccccc1)c1ccccc1O
inactive: DLD-1 67.1 µM | KM-20L2 > 100 µM | LXFL 529 35.4 µM | M19-MEL > 100 µM | SNB-78 > 100 µM | XF498 51.4 µM

N#Cc1c(-c2ccco2)cc(-c2ccc(NCc3nc4ccccc4[nH]3)cc2)nc1N
inactive: DLD-1 28.8 µM | HOP-18 24.4 µM | LXFL 529 17.9 µM | M19-MEL 25.1 µM

COc1cc(/C=C(\NC(=O)c2ccccc2)c2nc3c(O)nc(S)nc3[nH]2)cc(OC)c1OC
inactive: DLD-1 > 100 µM | DMS-114 > 100 µM | KM-20L2 > 100 µM | LXFL 529 > 100 µM | M19-MEL > 100 µM | RXF 631 > 100 µM | SNB-78 > 100 µM | XF498 > 100 µM
